# Measured values reported in US10781224B2, “Bis(oxymethyl)phosphinic acid and biogenic metal salts thereof as regulators of plant growth and development” (priority 2016, dated 2020).
# Experiments:
# [1] = system: rice (Diamant variety); assay: Rice seed treatment with BHMPA salts: germinating power; type: in vivo; details: for Length, root / Length, root, + % to control / Length, sprout / Length, sprout, + % to control / Mass, dry, root / Mass, dry, root, + % to control / Mass, dry, sprout / Mass, dry, sprout, + % to control / Mass, wet, root / Mass, wet, root, + % to control / Mass, wet, sprout / Mass, wet, sprout, + % to control: rice seed treatment
# In short: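 Seeds (50 per Petri dish on two layers of filter paper) soaked 1 h in BHMPA or its Ca, Mg, Na, Co, Mn, Cu or Zn salts at 1·10^−6-1·10^−12%, with water controls. Germination energy read on day 4, germination on day 8 (wheat) or day 7 (rice, corn), as % means of four replicates. Germinating power taken as root and sprout length plus wet and dry mass per 100 seedlings.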
# [2] = system: corn (Krasnodar 385 MV variety); assay: Corn seed treatment with BHMPA salts: germination energy and germination rate; type: in vivo
# In short: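 Corn, winter wheat and rice seeds (50 per dish, on filter paper) were soaked for 1 h in BHMPA or its metal salts at 1·10^−6-1·10^−12%, with water as control. Germination energy was read on day 4 and germination rate on day 8 for wheat and day 7 for rice and corn, following GOST 12038-84, as the mean of four replicates.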
# [3] = comparison with Melaphen (Table XXXIII), solution 1 · 10^−10%
# [4] = experimental solution 1 · 10^−6%
# [5] = experimental solution 1 · 10^−7%
# [6] = experimental solution 1 · 10^−8%
# [7] = experimental solution 1 · 10^−9%
# [8] = experimental solution 1 · 10^−10%
# [9] = experimental solution 1 · 10^−11%
# [10] = experimental solution 1 · 10^−12%
# [11] = rice, vs control, 1·10^−10% solution
# [12] = comparative study vs Melaphen, 1·10^−8% solution
substance,measurement,setting,value
Copper BHMPA Salt [Cu-salt],optimum concentration for treating rice seeds before sowing,[1]; rice,1·10^−10%
same,"Length, root",[1]; [3],6.3 cm
same,"Length, root, + % to control",[1]; [3],31%
same,"Length, sprout",[1]; [3],3.3 cm
same,"Length, sprout, + % to control",[1]; [3],27%
same,"Mass, dry, root",[1]; [3],0.26 g/100 plantlings
same,"Mass, dry, root, + % to control",[1]; [3],24%
same,"Mass, dry, sprout",[1]; [3],0.27 g/100 plantlings
same,"Mass, dry, sprout, + % to control",[1]; [3],8%
same,"Mass, wet, root",[1]; [3],1.35 g/100 plantlings
same,"Mass, wet, root, + % to control",[1]; [3],38%
same,"Mass, wet, sprout",[1]; [3],2.25 g/100 plantlings
same,"Mass, wet, sprout, + % to control",[1]; [3],49%
same,"Length, root",[1]; [4],5.4 cm
same,"Length, root, + % to control",[1]; [4],6%
same,"Length, sprout",[1]; [4],2.6 cm
same,"Length, sprout, + % to control",[1]; [4],8%
same,"Mass, dry, root",[1]; [4],0.19 g/100 plantlings
same,"Mass, dry, root, + % to control",[1]; [4],12%
same,"Mass, dry, sprout",[1]; [4],0.26 g/100 plantlings
same,"Mass, dry, sprout, + % to control",[1]; [4],13%
same,"Mass, wet, root",[1]; [4],0.93 g/100 plantlings
same,"Mass, wet, root, + % to control",[1]; [4],13%
same,"Mass, wet, sprout",[1]; [4],1.47 g/100 plantlings
same,"Mass, wet, sprout, + % to control",[1]; [4],6.5%
same,"Length, root",[1]; [5],5.5 cm
same,"Length, root, + % to control",[1]; [5],8%
same,"Length, sprout",[1]; [5],2.7 cm
same,"Length, sprout, + % to control",[1]; [5],12.5%
same,"Mass, dry, root",[1]; [5],0.21 g/100 plantlings
same,"Mass, dry, root, + % to control",[1]; [5],23.5%
same,"Mass, dry, sprout",[1]; [5],0.29 g/100 plantlings
same,"Mass, dry, sprout, + % to control",[1]; [5],26%
same,"Mass, wet, root",[1]; [5],1.03 g/100 plantlings
same,"Mass, wet, root, + % to control",[1]; [5],26%
same,"Mass, wet, sprout",[1]; [5],1.61 g/100 plantlings
same,"Mass, wet, sprout, + % to control",[1]; [5],17%
same,"Length, root",[1]; [6],5.7 cm
same,"Length, root, + % to control",[1]; [6],12%
same,"Length, sprout",[1]; [6],2.8 cm
same,"Length, sprout, + % to control",[1]; [6],17%
same,"Mass, dry, root",[1]; [6],0.23 g/100 plantlings
same,"Mass, dry, root, + % to control",[1]; [6],35%
same,"Mass, dry, sprout",[1]; [6],0.31 g/100 plantlings
same,"Mass, dry, sprout, + % to control",[1]; [6],35%
same,"Mass, wet, root",[1]; [6],1.09 g/100 plantlings
same,"Mass, wet, root, + % to control",[1]; [6],33%
same,"Mass, wet, sprout",[1]; [6],1.74 g/100 plantlings
same,"Mass, wet, sprout, + % to control",[1]; [6],26%
same,"Length, root",[1]; [7],5.9 cm
same,"Length, root, + % to control",[1]; [7],16%
same,"Length, sprout",[1]; [7],2.8 cm
same,"Length, sprout, + % to control",[1]; [7],17%
same,"Mass, dry, root",[1]; [7],0.25 g/100 plantlings
same,"Mass, dry, root, + % to control",[1]; [7],47%
same,"Mass, dry, sprout",[1]; [7],0.33 g/100 plantlings
same,"Mass, dry, sprout, + % to control",[1]; [7],43%
same,"Mass, wet, root",[1]; [7],1.16 g/100 plantlings
same,"Mass, wet, root, + % to control",[1]; [7],41%
same,"Mass, wet, sprout",[1]; [7],1.92 g/100 plantlings
same,"Mass, wet, sprout, + % to control",[1]; [7],39%
same,"Length, root",[1]; [8],6.0 cm
same,"Length, root, + % to control",[1]; [8],18%
same,"Length, sprout",[1]; [8],2.9 cm
same,"Length, sprout, + % to control",[1]; [8],21%
same,"Mass, dry, root",[1]; [8],0.27 g/100 plantlings
same,"Mass, dry, root, + % to control",[1]; [8],59%
same,"Mass, dry, sprout",[1]; [8],0.36 g/100 plantlings
same,"Mass, dry, sprout, + % to control",[1]; [8],56.5%
same,"Mass, wet, root",[1]; [8],1.22 g/100 plantlings
same,"Mass, wet, root, + % to control",[1]; [8],49%
same,"Mass, wet, sprout",[1]; [8],2.11 g/100 plantlings
same,"Mass, wet, sprout, + % to control",[1]; [8],53%
same,"Length, root",[1]; [9],5.9 cm
same,"Length, root, + % to control",[1]; [9],16%
same,"Length, sprout",[1]; [9],2.7 cm
same,"Length, sprout, + % to control",[1]; [9],12.5%
same,"Mass, dry, root",[1]; [9],0.24 g/100 plantlings
same,"Mass, dry, root, + % to control",[1]; [9],41%
same,"Mass, dry, sprout",[1]; [9],0.32 g/100 plantlings
same,"Mass, dry, sprout, + % to control",[1]; [9],39%
same,"Mass, wet, root",[1]; [9],1.12 g/100 plantlings
same,"Mass, wet, root, + % to control",[1]; [9],36.5%
same,"Mass, wet, sprout",[1]; [9],1.87 g/100 plantlings
same,"Mass, wet, sprout, + % to control",[1]; [9],35.5%
same,"Length, root",[1]; [10],5.6 cm
same,"Length, root, + % to control",[1]; [10],10%
same,"Length, sprout",[1]; [10],2.6 cm
same,"Length, sprout, + % to control",[1]; [10],8%
same,"Mass, dry, root",[1]; [10],0.20 g/100 plantlings
same,"Mass, dry, root, + % to control",[1]; [10],18%
same,"Mass, dry, sprout",[1]; [10],0.27 g/100 plantlings
same,"Mass, dry, sprout, + % to control",[1]; [10],17%
same,"Mass, wet, root",[1]; [10],1.01 g/100 plantlings
same,"Mass, wet, root, + % to control",[1]; [10],23%
same,"Mass, wet, sprout",[1]; [10],1.75 g/100 plantlings
same,"Mass, wet, sprout, + % to control",[1]; [10],27%
same,dry mass of the roots increased by,[1]; [11],59%
same,dry mass of the sprouts increased by,[1]; [11],56.5%
same,length of the root increased by,[1]; [11],18%
same,length of the sprout increased by,[1]; [11],21%
same,wet mass of the roots increased by,[1]; [11],49%
same,wet mass of the sprouts increased by,[1]; [11],53%
same,Germination energy,[2]; 1·10^−6% solution,80.0%
same,Germination rate,[2]; 1·10^−6% solution,82.5%
same,Germination energy,[2]; 1·10^−7% solution,82.3%
same,Germination rate,[2]; 1·10^−7% solution,85.0%
same,Germination energy,[2]; 1·10^−8% solution,91.8%
same,Germination rate,[2]; 1·10^−8% solution,94.2%
same,Germination energy,[2]; 1·10^−9% solution,90.0%
same,Germination rate,[2]; 1·10^−9% solution,92.3%
same,Germination energy,[2]; 1·10^−10% solution,85.8%
same,Germination rate,[2]; 1·10^−10% solution,88.3%
same,Germination energy,[2]; 1·10^−11% solution,82.3%
same,Germination rate,[2]; 1·10^−11% solution,85.0%
same,Germination energy,[2]; 1·10^−12% solution,78.8%
same,Germination rate,[2]; 1·10^−12% solution,81.7%
same,Germination energy,[2]; [12],87.7%
same,Germination rate,[2]; [12],97.0%
